Literature values, collected in patent publication US7767688B2, “Combination of pyrimidylaminobenzamide compounds and imatinib for treating gastrointestinal stromal tumours” (Novartis AG, priority 2005, dated 2010).

Target: PDGFRA V561D juxtamembrane domain mutation (Homo sapiens, UniProt P16234, V561D)
Conditions: V561D compared with D842V kinase domain mutation

PDGFRA V561D juxtamembrane domain mutation, sequence (P16234 24-1089 V561D): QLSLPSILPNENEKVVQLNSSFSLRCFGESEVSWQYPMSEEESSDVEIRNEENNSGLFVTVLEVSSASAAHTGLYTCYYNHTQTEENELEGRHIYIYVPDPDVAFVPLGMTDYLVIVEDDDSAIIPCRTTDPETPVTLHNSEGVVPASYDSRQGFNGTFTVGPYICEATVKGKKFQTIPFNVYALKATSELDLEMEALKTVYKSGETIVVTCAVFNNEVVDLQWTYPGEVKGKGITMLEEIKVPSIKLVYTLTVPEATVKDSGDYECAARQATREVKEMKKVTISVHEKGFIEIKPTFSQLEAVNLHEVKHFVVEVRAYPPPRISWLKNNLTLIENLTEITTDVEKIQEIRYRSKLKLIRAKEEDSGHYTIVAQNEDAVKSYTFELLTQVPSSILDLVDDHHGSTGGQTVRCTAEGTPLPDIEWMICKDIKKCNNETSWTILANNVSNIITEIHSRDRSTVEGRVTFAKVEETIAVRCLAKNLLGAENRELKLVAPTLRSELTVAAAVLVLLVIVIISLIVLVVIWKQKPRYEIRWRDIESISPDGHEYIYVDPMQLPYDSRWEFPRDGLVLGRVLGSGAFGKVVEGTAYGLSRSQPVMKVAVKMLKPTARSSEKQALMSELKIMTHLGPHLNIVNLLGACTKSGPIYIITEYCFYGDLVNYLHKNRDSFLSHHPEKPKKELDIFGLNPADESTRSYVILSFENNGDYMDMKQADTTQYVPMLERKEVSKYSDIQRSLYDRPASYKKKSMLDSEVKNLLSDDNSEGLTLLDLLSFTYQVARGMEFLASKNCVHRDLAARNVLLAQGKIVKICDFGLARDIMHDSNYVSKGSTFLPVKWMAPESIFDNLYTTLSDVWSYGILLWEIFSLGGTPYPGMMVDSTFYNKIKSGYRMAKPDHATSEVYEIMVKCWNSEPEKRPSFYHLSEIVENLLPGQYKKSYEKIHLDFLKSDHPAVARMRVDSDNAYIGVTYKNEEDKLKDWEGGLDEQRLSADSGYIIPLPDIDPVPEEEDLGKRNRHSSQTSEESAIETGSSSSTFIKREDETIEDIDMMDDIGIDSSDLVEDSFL

Cc1ccc(NC(=O)c2ccc(CN3CCN(C)CC3)cc2)cc1Nc1nccc(-c2cccnc2)n1 [imatinib]
Sensitivity to imatinib by location of PDGFRA mutation: more sensitive to imatinib than the D842V kinase domain mutation
